Read-outs that look alike come from different tables or passages of the source.
Key:
[1] = target: AD brain tissue homogenates (Homo sapiens, UniProt P10636); test: Competitive binding test using [3H]THK-5117 as radio ligand with AD brain tissue homogenates; details: 2 nM [3H]THK-5117, 100 μg homogenate, 3 hours room temperature
Description: Binding Experiment (1) with AD Brain Tissue Homogenates Competitive Binding Test Using [^3H]THK-5117 as Radio Ligand
PBS (0.1% BSA) was used as an assay buffer, and the concentration of TI-IK-5105S or THK-5105R was adjusted with 2 nM [^3H] THK-5117 to 10^−5 to 10^−10 M in a reaction system (200 μL) containing 100 μg of the homogenates, and the competitive tests were then carried out. A nonspecific binding was measured with 2 μM of THK-5117. After incubation at room temperature for 3 hours, a glass filter plate was used to separate [^3H]THK-5117 bound to the homogenates and unbound [^3H] THK-5117, and the filter plate was washed, and then to the separated filter was added liquid scintillation cocktail, and the bound radioactivity was measured on a liquid scintillation counter. The data was analyzed by analysis software GraphPad Prism (Ver. 5). The competitive tests were carried out similarly on THK-5117S, THK-5117R, THK-5151S, and THK-5151R.

tau lesion region = test: Autoradiography of hippocampus sections of an Alzheimer's disease patient; format: binding, human; details: AD hippocampus section, about 400 μCi/ml, in comparison with the corresponding R-form
Description: A brain specimen in hippocampus of the patient which was definitively-diagnosed as Alzheimer's disease pathologically was used. A paraffin-embedded brain tissue was sliced by 6 μm or 8 μm thick, and stretched on a glass slide, and dried. The paraffin brain sections were deparaffinized by washing sequentially with xylene 10 min.×2, 100% ethanol 5 min.×2, 90% ethanol 5 min., and flowing water 10 min. After deparaffinization, the sections were immersed in PBS. Each of about 400 μCi/ml of [^18F]THK-5105S and [^18F]THK-5105R was added dropwise to the sections, and the sections were allowed to a reaction at room temperature for 10 min. Thereafter, the sections were immersed in distilled water for 2 min., and successively, shaked lightly in 50% EtOH for 2 min., and thereafter immersed in distilled water for 2 min. again, and dried on paraffin stretching plate. Then, the sections were contacted with imaging plate, and allowed to stand overnight, and on next day, the imaging was read on BAS5000 (manufactured by FUJIFILM Holdings Corporation).
The autoradiography experiments were also carried out similarly on [^18F]THK-5151S and [^18F]THK-5151R.
THK-5105R and [^18F] THK-5151R in tau lesion region, which means that they binds more strongly to tau pathology.

amyloid β (Aβ) = test: Tissue binding test with 10 AD homogenate samples, correlation with Aβ concentration; set-up: species or system human; details: 1 nM probe, 100 μg tissue, 1 hour incubation
Description: (§1) Binding Experiment (2) with AD Brain Tissue Homogenates Organization Binding Evaluation Experiment of [^18F]THK-5105S
(§2) According to the above-mentioned assay buffer, nonspecific binding measurement, and filter separation operation, using 10 kinds of AD homogenate samples each having different tau concentration and amyloid β (Aβ) concentration, the reaction system was adjusted such that the tissue concentration was made 100 μg and [^18F]THK-5105S concentration was made 1 nM, and the binding test (1 hour incubation) was carried out in the reaction system.
(§3) As comparative example, the binding test was carried out also on [^18F]THK-5105R according to the similar method. The tau concentration or Aβ concentration was plotted on horizontal axis […], and the bound amount of [^18F]THK-5105S and [^18F]THK-5105R was plotted on vertical axis, and the correlation thereof was evaluated.
(§4) This means that when imaging, [^18F]THK-5105S can be detected the change of the tau concentration more sensitively.

[2] = Dynamic evaluation of normal mouse brain by small animal PET; format: in vivo, ICR mouse
Description: For experiments in small animal PET (evaluation of its brain delivery), Polysorbate 80 was added to the ethanol-eluted fraction, from which the ethanol was removed using an evaporator. The [^18F] THK-5105S containing radioactive residue within the flask was dissolved in physiological saline and the solution prepared was used as a solution for injection.
In this experiment, […] was administered intravenously via tail to ICR mouse (male 6 to 7 weeks old) under isoflurane anesthesia (1.5%), and the time-change of radioactivity distribution in brain was measured on Clairvivopet/CT (manufactured by Shimadzu Corporation, Kyoto). The emission scan was started simultaneously with the administration of the probe, and measured in 3D list mode for 120 min. After imaging, 35 frames (10×60 s, 10×120 s, […]) were reconstructed, and a region of interest was set in the brain, and quantified as SUV, and a time-activity curve (TAC) was created, and the Dynamism of the both probes were compared.
THK-5105R. In order to compare the disappearance change, the peak values of the TAC for both probes were converted into 100%, and the TAC was then shown as FIG. 7B. As evident from the TACs, [^18F]THK-51055 has larger ratio of disappearance per hour than [^18F]THK-5105R, that is, has more rapid rate of disappearance.
THK-5105R, and can therefore detect tau lesion with more excellent selectivity.

[3] = system: AD hippocampus tissue homogenate (tau lesion); test: Saturation binding experiment with AD hippocampus tissue homogenate; set-up: species or system human; details: 0.1 to 100 nM
Description: Further, according to the above-mentioned assay buffer, nonspecific binding measurement, and filter separation operation, each saturation binding experiment of [^18F]THK-5151S and [^18F]THK-5151R was carried out with AD hippocampus tissue homogenate. Zero point one (0.1) to 100 nM of each tested substance was incubated with hippocampus homogenate, and then filtered with a filter, washed, and then measured radioactivity supplemented by the filter, and thereby calculated as total binding and nonspecific binding at each concentration. The data was analyzed with GraphPad Prism (Ver. 5) to calculate binding dissociation constants Kd and Bmax. The binding curve of the results and the analysis results are shown as FIG. 6c.

[4] = Dynamic evaluation of normal mouse brain by biodistribution method; format: in vivo, ICR mouse
Description: A saline comprising [^18F]THK-5105S or [18F]THK-5105R was administered intravenously via tail to ICR mouse (male 6 to 7 weeks old), and the time change of radioactivity distribution in brain was measured on Clairvivopet/CT (manufactured by Shimadzu Corporation, Kyoto). The brain dynamics was evaluated by the time-change of the accumulation rate of radioactivity in brain tissue after 2 min., 10 min., 30 min., 60 min., and 120 min.
The accumulation rate of radioactivity was calculated as the ratio of radioactivity per weight of evaluated tissue against total administered radioactivity (% Injected Dose/g of tissue; % ID/g). The measurement of the radioactivity was carried out with Gamma counter (Accuflex γ7000, measured by Hitachi-Aloka Medical, Tokyo). The experimental procedure was as follows. After administering the label compound intravenously via tail at 2 min., 10 min., 30 min., 60 min., and 120 min., cervical dislocation of mouse was performed under ether anesthesia, and organ tissues were extracted. The radioactivity and the weight of each sample were measured, and the data was analyzed to calculate % ID/g. Also, as the evaluation index for the disappearance from the brain, the divided value of the accumulation rate at 2 min. after administration by the accumulation rate at 60 min. after administration (2 min./60 min. ratio) was calculated.

tau = test: Tissue binding test with 10 AD homogenate samples, correlation with tau concentration; set-up: species or system human; details: 1 nM probe, 100 μg tissue, 1 hour incubation, in comparison with [18F]THK-5105R
Description: as §1, §2, §3, §4

[5] = read-out: Ki Temporal lobe cortex (607.6 pmol/g tissue)
[6] = read-out: Ki Entorhinal cortex 601 pmol/g tissue
[7] = intravenous via tail, in comparison with [18F]THK-5105R

Sequence of AD brain tissue homogenates (P10636 623-695 limits assumed): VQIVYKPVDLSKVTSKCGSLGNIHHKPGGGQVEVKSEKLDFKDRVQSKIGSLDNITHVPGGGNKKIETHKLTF

CNc1ccc(-c2ccc3cc(OCC(O)CF)ccc3n2)cc1 (centres unmarked) [THK-5117R, reference compound]
Ki [1, 5]: 25.7 ± 10.7 nM

CN(C)c1ccc(-c2ccc3cc(OC[C@H](O)C[18F])ccc3n2)cc1 [[^18F]THK-5105S]
autoradiography imaging signal in tau lesion region (tau lesion region): stronger imaging signal

CN(C)c1ccc(-c2ccc3cc(OC[C@H](O)CF)ccc3n2)cc1 [THK-5105S]
Ki [1, 6]: 4.6 nM
Ki [1, 5]: 2.6 nM

CN(C)c1ccc(-c2ccc3cc(OCC(O)C[18F])ccc3n2)cc1 (centres unmarked) [[^18F]THK-5105R, reference compound]
correlation of tissue bound amount with the Aβ concentration (amyloid β (Aβ)): could not be found to have a correlation with the Aβ concentration
SUV Ratio 5 min./30 min. ([2]; brain, intravenous via tail): 1.92 ± 0.3
SUV Ratio 5 min./60 min. ([2]; brain, intravenous via tail): 3.67 ± 0.9
SUV Ratio 5 min./120 min. ([2]; brain, intravenous via tail): 7.75 ± 1.6

CNc1ccc(-c2ccc3cc(OC[C@H](O)CF)ccc3n2)cn1 [[^18F]THK-5151S]
autoradiography imaging signal in tau lesion region (tau lesion region): stronger imaging signal
Bmax/Kd value as bonding potential in comparison with [18F]THK-5151R [3]: about fourth times large Bmax/Kd value
Kd value in comparison with [18F]THK-5151R [3]: about one tenth small Kd value
accumulation rate of radioactivity in brain, 2 min. ([4]; 2 min. after intravenous administration, n = 4): 4.36 ± 0.19 % ID/g
accumulation rate of radioactivity in brain, 10 min. ([4]; 10 min. after intravenous administration, n = 4): 1.10 ± 0.19 % ID/g
accumulation rate of radioactivity in brain, 30 min. ([4]; 30 min. after intravenous administration, n = 4): 0.21 ± 0.03 % ID/g
accumulation rate of radioactivity in brain, 60 min. ([4]; 60 min. after intravenous administration, n = 4): 0.13 ± 0.03 % ID/g
accumulation rate of radioactivity in brain, 120 min. ([4]; 120 min. after intravenous administration, n = 4): 0.12 ± 0.02 % ID/g
2 min./60 min. ratio ([4]; brain accumulation rate at 2 min. divided by that at 60 min.): 33
accumulation rate value after the initial uptake, compared between probes ([4]; in comparison with [18F]THK-5151R): lower values
brain uptake shortly after administration ([4]; shortly after administration): about 4 % ID/g

CNc1ccc(-c2ccc3cc(OC[C@H](O)CF)ccc3n2)cn1 [THK-5151S]
Ki [1, 5]: 7.2 ± 1.27 nM

CNc1ccc(-c2ccc3cc(OC[C@H](O)CF)ccc3n2)cc1 [THK-5117S]
Ki [1, 5]: 9.4 ± 4.8 nM

CN(C)c1ccc(-c2ccc3cc(OC[C@H](O)CF)ccc3n2)cc1 [[^18F]THK-5105S]
correlation of tissue bound amount with the tau concentration (tau): extremely higher correlation with the tau concentration
tissue bound amount (tau): higher bound amount
correlation of tissue bound amount with the Aβ concentration (amyloid β (Aβ)): could not be found to have a correlation with the Aβ concentration
SUV ratios 5 min./30 min., 5 min./60 min., 5 min./120 min. compared between probes ([2]; brain, in comparison with [18F]THK-5105R): significantly higher value
SUV Ratio 5 min./30 min. ([2]; brain, intravenous via tail): 2.70 ± 0.1
SUV Ratio 5 min./60 min. ([2]; brain, intravenous via tail): 6.27 ± 0.6
SUV Ratio 5 min./120 min. ([2]; brain, intravenous via tail): 19.2 ± 4.4
disappearance from normal brain tissue (time-activity curve) [2, 7]: disappeared more rapidly from normal brain tissue
retention into the normal brain tissue [2, 7]: lower retention into the normal brain tissue

CN(C)c1ccc(-c2ccc3cc(OC[C@@H](O)CF)ccc3n2)cc1 [THK-5105R, reference compound]
Ki [1, 6]: 27.4 nM
Ki [1, 5]: 16.3 nM
